Results reported in patent publication US6656888B1, “Biodegradable two-cycle engine oil compositions, grease compositions, and ester base stocks use therein” (Cognis Corporation, priority 1992, dated 2003).

Tests used:
Format in all cases: physicochemical
[1] = Kinematic viscosity, ASTM D-445
[2] = Pour Point, ASTM D-97
[3] = Flash Point, ASTM D-92

Substance: trimethylolpropane trioleate [EMERY® 2964]
- Viscosity, cSt 40° C. ([1]; 40° C.): 48.43 cSt
- Viscosity, cSt 100° C. ([1]; 100° C.): 10.17 cSt
- Pour Point, ° C. [2]: −40 °C
- Flash Point, ° C. [3]: 312 °C
